Measured values as given in patent US20120045393A1 (priority 2009, published 2012).
Non-standard residues stand in square brackets, D forms with d. Residues, ends and D or L forms follow the SMILES beside them. *: point of attachment. DOTA = O=C(O)CN1CCN(CC(=O)O)CCN(CC(=O)*)CCN(CC(=O)O)CC1; Bpa = N[C@@H](Cc1ccc(C(=O)c2ccccc2)cc1)C(=O)O; Ala(4-thiazolyl) = N[C@@H](Cc1cscn1)C(=O)O; d2Nal = N[C@H](Cc1ccc2ccccc2c1)C(=O)O; DO3A10CM = not defined here; azaGly = NNC(=O)O; Sar = CNCC(=O)O

system: LHRH binding sites on human ovarian cancer cells (EFO-27); assay: not given; conditions: not given;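 note: Cell-associated radioactivity on confluent EFO-27 monolayers in 96-well plates, measured by microplate scintillation counting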

Row | Molecule | EC50 [µM]
1 | CNCC(=O)N[C@@H](CCCNC(=N)N)C(=O)N[C@@H](Cc1c[nH]c2ccccc12)C(=O)N[C@@H](CO)C(=O)N[C@@H](Cc1c[nH]cn1)C(=O)N[C@H](CCCNC(=N)N)C(=O)N[C@@H](Cc1c[nH]c2ccccc12)C(=O)N[C@@H](Cc1ccc(C(=O)c2ccccc2)cc1)C(=O)N1CCC[C@H]1C(=O)NCCNC(=O)CN1CCN(CC(=O)O)CCN(CC(=O)O)CCN(CC(=O)O)CC1 [compound 3103] | 0.17 ± 0.07
2 | CN(CC(=O)N[C@@H](Cc1c[nH]cn1)C(=O)N[C@@H](Cc1c[nH]c2ccccc12)C(=O)N[C@@H](CO)C(=O)N[C@@H](Cc1c[nH]cn1)C(=O)N[C@H](CCCNC(=N)N)C(=O)N[C@@H](Cc1c[nH]c2ccccc12)C(=O)N[C@@H](CCCNC(=N)N)C(=O)N1CCC[C@H]1C(=O)NNC(N)=O)C(=O)CN1CCN(CC(=O)O)CCN(CC(=O)O)CCN(CC(=O)O)CC1 [BRU-2723] (HELM PEPTIDE1{[O=C(O)CN1CCN(CC(=O)O)CCN(CC(=O)[*:2])CCN(CC(=O)O)CC1].[Sar].H.W.S.H.[dR].W.R.P.[O=C(NN[*:1])[*:2]].[am]}$$$$V2.0) | 2.83
3 | N=C(N)NCCC[C@H](NC(=O)[C@H](N)Cc1ccc2ccccc2c1)C(=O)N[C@@H](Cc1c[nH]c2ccccc12)C(=O)N[C@@H](CO)C(=O)N[C@@H](Cc1c[nH]cn1)C(=O)N[C@H](CCCNC(=N)N)C(=O)N[C@@H](Cc1c[nH]c2ccccc12)C(=O)N[C@@H](Cc1ccc(C(=O)c2ccccc2)cc1)C(=O)N1CCC[C@H]1C(=O)NCC(=O)NCCCCNC(=O)CN1CCN(CC(=O)O)CCN(CC(=O)O)CCN(CC(=O)O)CC1 [compound 2990] | 30.2 ± 8.28
4 | N=C(N)NCCC[C@H](NC(=O)[C@H](N)Cc1ccc2ccccc2c1)C(=O)N[C@@H](Cc1c[nH]c2ccccc12)C(=O)N[C@@H](CO)C(=O)N[C@@H](Cc1c[nH]cn1)C(=O)N[C@H](CCCNC(=N)N)C(=O)N[C@@H](Cc1c[nH]c2ccccc12)C(=O)N[C@@H](Cc1ccc(C(=O)c2ccccc2)cc1)C(=O)N1CCC[C@H]1C(=O)NCCOCCNC(=O)CN1CCN(CC(=O)O)CCN(CC(=O)O)CCN(CC(=O)O)CC1 [compound 2991] | 0.21 ± 0.06
5 | C[C@H](NC(=O)[C@H](CO)NC(=O)[C@H](Cc1c[nH]c2ccccc12)NC(=O)[C@H](CCCNC(=N)N)NC(=O)[C@@H](Cc1ccc2ccccc2c1)NC(=O)CN1CCN(CC(=O)O)CCN(CC(=O)O)CCN(CC(=O)O)CC1)C(=O)N[C@H](CCCNC(=N)N)C(=O)N[C@@H](Cc1c[nH]c2ccccc12)C(=O)N[C@@H](Cc1ccc(C(=O)c2ccccc2)cc1)C(=O)N1CCC[C@H]1C(=O)NNC(N)=O [compound 3028] ({DOTA}-[d2Nal]RWSA[dR]W[Bpa]P[azaGly]-NH2) | 1.09
6 | CNCC(=O)N[C@@H](CCCNC(=N)N)C(=O)N[C@@H](Cc1c[nH]c2ccccc12)C(=O)N[C@@H](CO)C(=O)N[C@@H](Cc1c[nH]cn1)C(=O)N[C@H](CCCNC(=N)N)C(=O)N[C@@H](Cc1c[nH]c2ccccc12)C(=O)N[C@@H](Cc1ccc(C(=O)c2ccccc2)cc1)C(=O)N1CCC[C@H]1C(=O)NCCCCCNC(=O)CN1CCN(CC(=O)O)CCN(CC(=O)O)CCN(CC(=O)O)CC1 [compound 3085] | 0.4 ± 0.25
7 | CN(CC(=O)N[C@@H](Cc1c[nH]cn1)C(=O)N[C@@H](Cc1c[nH]c2ccccc12)C(=O)N[C@@H](CO)C(=O)N[C@@H](Cc1c[nH]cn1)C(=O)N[C@H](CCCNC(=N)N)C(=O)N[C@@H](Cc1c[nH]c2ccccc12)C(=O)N[C@@H](Cc1c[nH]cn1)C(=O)N1CCC[C@H]1C(=O)NNC(N)=O)C(=O)CN1CCN(CC(=O)O)CCN(CC(=O)O)CCN(CC(=O)O)CC1 [BRU-2763] (HELM PEPTIDE1{[O=C(O)CN1CCN(CC(=O)O)CCN(CC(=O)[*:2])CCN(CC(=O)O)CC1].[Sar].H.W.S.H.[dR].W.H.P.[O=C(NN[*:1])[*:2]].[am]}$$$$V2.0) | 13.6

Now from value to molecule:

Row | EC50 [µM] | Molecule
8 | 0.23 to 0.5 | CNCC(=O)N[C@@H](CCCNC(=N)N)C(=O)N[C@@H](Cc1c[nH]c2ccccc12)C(=O)N[C@@H](CO)C(=O)N[C@@H](Cc1c[nH]cn1)C(=O)N[C@H](CCCNC(=N)N)C(=O)N[C@@H](Cc1c[nH]c2ccccc12)C(=O)N[C@@H](Cc1ccc(C(=O)c2ccccc2)cc1)C(=O)N1CCC[C@H]1C(=O)NCCCCNC(=O)CN1CCN(CC(=O)O)CCN(CC(=O)O)CCN(CC(=O)O)CC1 [BRU-3041]
9 | ≤ 0.2 | CNCC(=O)N[C@@H](CCCNC(=N)N)C(=O)N[C@@H](Cc1c[nH]c2ccccc12)C(=O)N[C@@H](CO)C(=O)N[C@@H](Cc1c[nH]cn1)C(=O)N[C@H](CCCNC(=N)N)C(=O)N[C@@H](Cc1c[nH]c2ccccc12)C(=O)N[C@@H](Cc1ccc(C(=O)c2ccccc2)cc1)C(=O)N1CCC[C@H]1C(=O)NCCNC(=O)CN1CCN(CC(=O)O)CCN(CC(=O)O)CCN(CC(=O)O)CC1 [BRU-3103]
10 | 15 | CN(CC(=O)N[C@@H](Cc1cscn1)C(=O)N[C@@H](Cc1c[nH]c2ccccc12)C(=O)N[C@@H](CO)C(=O)N[C@@H](Cc1cscn1)C(=O)N[C@H](CCCNC(=N)N)C(=O)N[C@@H](Cc1c[nH]c2ccccc12)C(=O)N[C@@H](Cc1ccc(C(=O)c2ccccc2)cc1)C(=O)N1CCC[C@H]1C(=O)NNC(N)=O)C(=O)CN1CCN(CC(=O)O)CCN(CC(=O)O)CCN(CC(=O)O)CC1 [BRU-2762] ({DOTA}-[Sar][Ala(4-thiazolyl)]WS[Ala(4-thiazolyl)][dR]W[Bpa]P[azaGly]-NH2; C-terminus assumed)
11 | 0.93 | N=C(N)NCCC[C@H](NC(=O)[C@@H](Cc1ccc2ccccc2c1)NC(=O)CN1CCN(CC(=O)O)CCN(CC(=O)O)CCN(CC(=O)O)CC1)C(=O)N[C@@H](Cc1c[nH]c2ccccc12)C(=O)N[C@@H](CO)C(=O)N[C@@H](CCCNC(N)=O)C(=O)N[C@H](CCCNC(=N)N)C(=O)N[C@@H](Cc1c[nH]c2ccccc12)C(=O)N[C@@H](Cc1ccc(C(=O)c2ccccc2)cc1)C(=O)N1CCC[C@H]1C(=O)NNC(N)=O [BRU-3030]

same assay, conditions: EFO-27 cells, competition with [125I-Tyr8]BRU-2477, 90 min

Row | Molecule | EC50 [µM]
12 | CN(CC(=O)N[C@@H](Cc1c[nH]cn1)C(=O)N[C@@H](Cc1c[nH]c2ccccc12)C(=O)N[C@@H](CO)C(=O)N[C@@H](Cc1ccc(O)cc1)C(=O)N[C@H](CCCNC(=N)N)C(=O)N[C@@H](Cc1c[nH]c2ccccc12)C(=O)N[C@@H](Cc1ccc(C(=O)c2ccccc2)cc1)C(=O)N1CCC[C@H]1C(=O)NNC(N)=O)C(=O)CN1CCN(CC(=O)O)CCN(CC(=O)O)CCN(CC(=O)O)CC1 [BRU-2668] ({DOTA}-[Sar]HWSY[dR]W[Bpa]P[azaGly]-NH2; C-terminus assumed) | 3.47

same assay, conditions: Table 5: modifications of amino acids at positions 1 and 2; in vitro binding on EFO-27 cells

Row | Molecule | EC50 [µM]
13 | N=C(N)NCCC[C@@H](NC(=O)[C@H](Cc1c[nH]cn1)NC(=O)[C@H](CO)NC(=O)[C@H](Cc1c[nH]c2ccccc12)NC(=O)[C@H](Cc1c[nH]cn1)NC(=O)[C@@H]1CSCN1C(=O)CNC(=O)CN1CCN(CC(=O)O)CCN(CC(=O)O)CCN(CC(=O)O)CC1)C(=O)N[C@@H](Cc1c[nH]c2ccccc12)C(=O)N[C@@H](Cc1ccc(C(=O)c2ccccc2)cc1)C(=O)N1CCC[C@H]1C(=O)NNC(N)=O [BRU-2728] | 3.15
14 | CN(CC(=O)N[C@@H](CCCCN)C(=O)N[C@@H](Cc1c[nH]c2ccccc12)C(=O)N[C@@H](CO)C(=O)N[C@@H](Cc1c[nH]cn1)C(=O)N[C@H](CCCNC(=N)N)C(=O)N[C@@H](Cc1c[nH]c2ccccc12)C(=O)N[C@@H](Cc1ccc(C(=O)c2ccccc2)cc1)C(=O)N1CCC[C@H]1C(=O)NNC(N)=O)C(=O)CN1CCN(CC(=O)O)CCN(CC(=O)O)CCN(CC(=O)O)CC1 [BRU-2871] ({DOTA}-[Sar]KWSH[dR]W[Bpa]P[azaGly]-NH2) | 10

target: LHRH binding sites on EFO-27 human ovarian cancer cells (human); assay: competition with [125I-Tyr8]BRU-2477 on EFO-27 cells; conditions: not given

Row | EC50 [µM] | Molecule
15 | 0.51 | XRWSHXWXP (DO3A10CM on N-terminus; AA1 Dnal2; AA6 Darg; AA8 Bpa4; AA10 Aeh2 (aminoethanol; printed Ach2 in paragraph 138)) [BRU-2970]
16 | 0.97 | DO3A10CM-[d2Nal]RWSH[dR]W[Bpa]PGF-NH2 (reading uncertain) [BRU-2980]
